# Experimental data: ChEMBL document CHEMBL5723582, “Data for DCP probe T-10430” (2024)
# What was measured:
# [1] = target: Alpha-2B adrenergic receptor (Homo sapiens) (UniProt P18089); test: RLU of ADRA2B at 1.0 µM in the […] PRESTO-Tango GPCRome screen; settings: Compound concentration 1.0 uM
# [2] = target: Bombesin receptor subtype-3 (Homo sapiens) (UniProt P32247); test: RLU of BB3 at 1.0 µM in the […] PRESTO-Tango GPCRome screen; settings: Compound concentration 1.0 uM
# [3] = target: Gastrin/cholecystokinin type B receptor (Homo sapiens) (UniProt P32239); test: RLU of CCKBR at 1.0 µM in the […] PRESTO-Tango GPCRome screen; settings: Compound concentration 1.0 uM
# [4] = target: Endothelin receptor type B (Homo sapiens) (UniProt P24530); test: RLU of EDNRB at 1.0 µM in the […] PRESTO-Tango GPCRome screen; settings: Compound concentration 1.0 uM
# [5] = target: Proteinase-activated receptor 1 (Homo sapiens) (UniProt P25116); test: RLU of F2R at 1.0 µM in the […] PRESTO-Tango GPCRome screen; settings: Compound concentration 1.0 uM
# [6] = target: Glucagon receptor (Homo sapiens) (UniProt P47871); test: RLU of GCGR at 1.0 µM in the […] PRESTO-Tango GPCRome screen; settings: Compound concentration 1.0 uM
# [7] = target: Gastric inhibitory polypeptide receptor (Homo sapiens) (UniProt P48546); test: RLU of GIPR at 1.0 µM in the […] PRESTO-Tango GPCRome screen; settings: Compound concentration 1.0 uM
# Chain of Gastric inhibitory polypeptide receptor (Homo sapiens) (P48546 whole entry): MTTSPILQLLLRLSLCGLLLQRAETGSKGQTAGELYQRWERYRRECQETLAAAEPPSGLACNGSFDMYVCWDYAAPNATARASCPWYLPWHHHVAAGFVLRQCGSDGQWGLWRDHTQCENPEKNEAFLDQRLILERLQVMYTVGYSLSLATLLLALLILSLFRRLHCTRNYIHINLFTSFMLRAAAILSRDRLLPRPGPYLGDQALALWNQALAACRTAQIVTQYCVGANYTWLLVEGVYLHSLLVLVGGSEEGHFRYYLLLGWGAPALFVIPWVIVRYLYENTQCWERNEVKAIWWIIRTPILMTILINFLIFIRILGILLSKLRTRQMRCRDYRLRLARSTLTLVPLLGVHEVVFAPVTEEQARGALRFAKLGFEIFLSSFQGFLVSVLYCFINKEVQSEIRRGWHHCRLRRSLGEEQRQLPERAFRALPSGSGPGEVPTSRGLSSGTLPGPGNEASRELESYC
# [8] = target: Chemerin-like receptor 2 (Homo sapiens) (UniProt P46091); test: RLU of GPR1 at 1.0 µM in the […] PRESTO-Tango GPCRome screen; settings: Compound concentration 1.0 uM
# Chain of Chemerin-like receptor 2 (Homo sapiens) (P46091 whole entry): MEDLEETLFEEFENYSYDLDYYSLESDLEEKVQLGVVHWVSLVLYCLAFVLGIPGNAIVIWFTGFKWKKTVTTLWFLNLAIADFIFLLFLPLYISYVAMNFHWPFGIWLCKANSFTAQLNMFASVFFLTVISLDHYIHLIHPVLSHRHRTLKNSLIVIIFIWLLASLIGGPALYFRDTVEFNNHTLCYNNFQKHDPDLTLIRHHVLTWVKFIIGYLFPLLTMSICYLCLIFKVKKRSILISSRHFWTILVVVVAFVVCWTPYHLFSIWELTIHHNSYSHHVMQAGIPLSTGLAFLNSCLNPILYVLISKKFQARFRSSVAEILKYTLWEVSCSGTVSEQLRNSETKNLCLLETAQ
# [9] = target: Probable G-protein coupled receptor 101 (Homo sapiens) (UniProt Q96P66); test: RLU of GPR101 at 1.0 µM in the […] PRESTO-Tango GPCRome screen; settings: Compound concentration 1.0 uM
# [10] = target: Adhesion G-protein coupled receptor G5 (Homo sapiens) (UniProt Q8IZF4); test: RLU of GPR114 at 1.0 µM in the […] PRESTO-Tango GPCRome screen; settings: Compound concentration 1.0 uM
# [11] = target: Adhesion G protein-coupled receptor A1 (Homo sapiens) (UniProt Q86SQ6); test: RLU of GPR123 at 1.0 µM in the […] PRESTO-Tango GPCRome screen; settings: Compound concentration 1.0 uM
# [12] = target: G-protein coupled receptor 171 (Homo sapiens) (UniProt O14626); test: RLU of GPR171 at 1.0 µM in the […] PRESTO-Tango GPCRome screen; settings: Compound concentration 1.0 uM
# [13] = target: Probable G-protein coupled receptor 174 (Homo sapiens) (UniProt Q9BXC1); test: RLU of GPR174 at 1.0 µM in the […] PRESTO-Tango GPCRome screen; settings: Compound concentration 1.0 uM
# [14] = target: G-protein coupled receptor 87 (Homo sapiens) (UniProt Q9BY21); test: RLU of GPR87 at 1.0 µM in the […] PRESTO-Tango GPCRome screen; settings: Compound concentration 1.0 uM
# [15] = target: Metabotropic glutamate receptor 2 (Homo sapiens) (UniProt Q14416); test: RLU of GRM2 at 1.0 µM in the Aequorin PRESTO-Tango GPCRome screen; settings: Compound concentration 1.0 uM
# Chain of Metabotropic glutamate receptor 2 (Homo sapiens) (Q14416 19-872 limits assumed): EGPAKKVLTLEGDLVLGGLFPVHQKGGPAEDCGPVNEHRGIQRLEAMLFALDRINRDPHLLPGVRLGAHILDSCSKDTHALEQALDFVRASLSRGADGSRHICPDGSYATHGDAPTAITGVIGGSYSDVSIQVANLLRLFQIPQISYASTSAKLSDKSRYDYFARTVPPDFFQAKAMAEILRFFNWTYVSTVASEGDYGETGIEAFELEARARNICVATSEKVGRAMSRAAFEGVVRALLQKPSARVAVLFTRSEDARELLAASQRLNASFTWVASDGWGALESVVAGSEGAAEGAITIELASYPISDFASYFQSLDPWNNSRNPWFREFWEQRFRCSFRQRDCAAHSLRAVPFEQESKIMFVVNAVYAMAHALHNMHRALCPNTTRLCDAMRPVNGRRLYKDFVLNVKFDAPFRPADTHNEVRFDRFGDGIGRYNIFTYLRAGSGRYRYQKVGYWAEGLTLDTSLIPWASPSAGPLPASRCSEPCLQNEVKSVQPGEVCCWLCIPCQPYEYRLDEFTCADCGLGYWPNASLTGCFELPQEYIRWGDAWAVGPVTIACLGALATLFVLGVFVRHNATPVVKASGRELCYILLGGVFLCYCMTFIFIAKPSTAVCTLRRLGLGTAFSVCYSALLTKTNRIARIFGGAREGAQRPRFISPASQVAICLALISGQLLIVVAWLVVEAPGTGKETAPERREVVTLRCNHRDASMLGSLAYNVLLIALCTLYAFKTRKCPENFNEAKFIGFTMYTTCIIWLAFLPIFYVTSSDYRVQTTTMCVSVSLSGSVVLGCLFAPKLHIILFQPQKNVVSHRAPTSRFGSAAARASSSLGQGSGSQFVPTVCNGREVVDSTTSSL
# [16] = target: Hydroxycarboxylic acid receptor 1 (Homo sapiens) (UniProt Q9BXC0); test: RLU of HCA1 at 1.0 µM in the Aequorin PRESTO-Tango GPCRome screen; settings: Compound concentration 1.0 uM
# [17] = target: Histamine H1 receptor (Homo sapiens) (UniProt P35367); test: RLU of HRH1 at 1.0 µM in the Aequorin PRESTO-Tango GPCRome screen; settings: Compound concentration 1.0 uM
# Chain of Histamine H1 receptor (Homo sapiens) (P35367 whole entry): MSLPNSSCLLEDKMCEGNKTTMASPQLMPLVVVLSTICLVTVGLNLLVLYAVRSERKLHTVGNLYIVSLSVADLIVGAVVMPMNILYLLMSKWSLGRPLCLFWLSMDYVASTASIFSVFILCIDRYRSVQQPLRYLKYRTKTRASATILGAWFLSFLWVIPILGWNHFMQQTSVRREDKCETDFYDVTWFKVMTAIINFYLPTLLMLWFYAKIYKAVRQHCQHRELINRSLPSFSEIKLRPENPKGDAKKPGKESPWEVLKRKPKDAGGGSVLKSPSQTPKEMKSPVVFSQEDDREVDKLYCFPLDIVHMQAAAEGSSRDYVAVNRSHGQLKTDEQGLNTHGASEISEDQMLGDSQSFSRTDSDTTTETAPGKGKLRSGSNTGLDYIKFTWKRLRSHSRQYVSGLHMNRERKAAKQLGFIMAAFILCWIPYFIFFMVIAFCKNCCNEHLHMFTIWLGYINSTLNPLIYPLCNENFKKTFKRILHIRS
# [18] = target: 5-hydroxytryptamine receptor 4 (Homo sapiens) (UniProt Q13639); test: RLU of HTR4 at 1.0 µM in the […] PRESTO-Tango GPCRome screen; settings: Compound concentration 1.0 uM
# [19] = target: 5-hydroxytryptamine receptor 6 (Homo sapiens) (UniProt P50406); test: RLU of HTR6 at 1.0 µM in the […] PRESTO-Tango GPCRome screen; settings: Compound concentration 1.0 uM
# Chain of 5-hydroxytryptamine receptor 6 (Homo sapiens) (P50406 whole entry): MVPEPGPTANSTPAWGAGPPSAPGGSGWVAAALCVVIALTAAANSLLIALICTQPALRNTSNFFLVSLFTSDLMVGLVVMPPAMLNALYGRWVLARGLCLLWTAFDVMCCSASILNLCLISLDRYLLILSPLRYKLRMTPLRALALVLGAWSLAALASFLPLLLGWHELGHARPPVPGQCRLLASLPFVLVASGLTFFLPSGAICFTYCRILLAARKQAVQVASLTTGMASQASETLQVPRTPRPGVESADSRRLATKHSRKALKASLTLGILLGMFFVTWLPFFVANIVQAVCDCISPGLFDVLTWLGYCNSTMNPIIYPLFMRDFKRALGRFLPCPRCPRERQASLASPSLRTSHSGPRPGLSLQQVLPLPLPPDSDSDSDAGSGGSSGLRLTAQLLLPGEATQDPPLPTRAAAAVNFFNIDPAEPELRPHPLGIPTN
# [20] = target: Lysophosphatidic acid receptor 5 (Homo sapiens) (UniProt Q9H1C0); test: RLU of LPAR5 at 1.0 µM in the […] PRESTO-Tango GPCRome screen; settings: Compound concentration 1.0 uM
# [21] = target: Proto-oncogene Mas (Homo sapiens) (UniProt P04201); test: RLU of MAS1 at 1.0 µM in the […] PRESTO-Tango GPCRome screen; settings: Compound concentration 1.0 uM
# Chain of Proto-oncogene Mas (Homo sapiens) (P04201 whole entry): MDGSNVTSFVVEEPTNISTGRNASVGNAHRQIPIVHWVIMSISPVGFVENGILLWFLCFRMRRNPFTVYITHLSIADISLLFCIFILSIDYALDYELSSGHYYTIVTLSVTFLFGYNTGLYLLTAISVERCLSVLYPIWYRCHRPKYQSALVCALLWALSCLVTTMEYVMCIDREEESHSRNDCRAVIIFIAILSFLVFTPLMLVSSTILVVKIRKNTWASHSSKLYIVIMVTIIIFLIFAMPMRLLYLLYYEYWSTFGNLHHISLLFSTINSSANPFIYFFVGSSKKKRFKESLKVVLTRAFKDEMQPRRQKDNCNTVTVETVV
# [22] = target: Motilin receptor (Homo sapiens) (UniProt O43193); test: RLU of MLNR at 1.0 µM in the […] PRESTO-Tango GPCRome screen; settings: Compound concentration 1.0 uM
# Chain of Motilin receptor (Homo sapiens) (O43193 whole entry): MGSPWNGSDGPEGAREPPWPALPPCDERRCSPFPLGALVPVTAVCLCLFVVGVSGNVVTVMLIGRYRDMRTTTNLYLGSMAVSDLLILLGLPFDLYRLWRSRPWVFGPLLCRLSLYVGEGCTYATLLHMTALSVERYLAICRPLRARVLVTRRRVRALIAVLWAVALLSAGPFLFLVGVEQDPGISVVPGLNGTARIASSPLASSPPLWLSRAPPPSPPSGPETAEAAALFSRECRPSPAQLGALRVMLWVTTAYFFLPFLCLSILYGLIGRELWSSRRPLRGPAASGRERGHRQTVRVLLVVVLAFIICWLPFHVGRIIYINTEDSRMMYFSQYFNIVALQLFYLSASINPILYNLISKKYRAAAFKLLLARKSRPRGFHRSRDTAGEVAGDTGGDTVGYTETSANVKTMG
# [23] = target: Mas-related G-protein coupled receptor member X1 (Homo sapiens) (UniProt Q96LB2); test: RLU of MRGPRX1 at 1.0 µM in the […] PRESTO-Tango GPCRome screen; settings: Compound concentration 1.0 uM
# [24] = target: Melatonin receptor type 1A (Homo sapiens) (UniProt P48039); test: RLU of MTNR1A at 1.0 µM in the […] PRESTO-Tango GPCRome screen; settings: Compound concentration 1.0 uM
# [25] = target: Neuropeptide Y receptor type 4 (Homo sapiens) (UniProt P50391); test: RLU of NPY4R at 1.0 µM in the […] PRESTO-Tango GPCRome screen; settings: Compound concentration 1.0 uM
# [26] = target: Neurotensin receptor type 2 (Homo sapiens) (UniProt O95665); test: RLU of NTSR2 at 1.0 µM in the […] PRESTO-Tango GPCRome screen; settings: Compound concentration 1.0 uM
# Chain of Neurotensin receptor type 2 (Homo sapiens) (O95665 whole entry): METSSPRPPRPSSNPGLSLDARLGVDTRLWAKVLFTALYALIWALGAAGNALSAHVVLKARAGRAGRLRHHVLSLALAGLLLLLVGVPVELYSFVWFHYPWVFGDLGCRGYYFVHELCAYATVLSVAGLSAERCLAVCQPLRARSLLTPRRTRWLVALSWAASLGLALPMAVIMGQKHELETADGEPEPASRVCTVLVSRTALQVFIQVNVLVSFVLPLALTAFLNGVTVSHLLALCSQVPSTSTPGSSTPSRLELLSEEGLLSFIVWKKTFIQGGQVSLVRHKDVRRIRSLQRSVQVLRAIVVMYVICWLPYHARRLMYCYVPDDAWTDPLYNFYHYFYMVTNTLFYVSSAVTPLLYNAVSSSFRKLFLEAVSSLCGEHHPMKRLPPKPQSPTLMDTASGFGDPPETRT
# [27] = target: Oxytocin receptor (Homo sapiens) (UniProt P30559); test: RLU of OXTR at 1.0 µM in the […] PRESTO-Tango GPCRome screen; settings: Compound concentration 1.0 uM
# Chain of Oxytocin receptor (Homo sapiens) (P30559 whole entry): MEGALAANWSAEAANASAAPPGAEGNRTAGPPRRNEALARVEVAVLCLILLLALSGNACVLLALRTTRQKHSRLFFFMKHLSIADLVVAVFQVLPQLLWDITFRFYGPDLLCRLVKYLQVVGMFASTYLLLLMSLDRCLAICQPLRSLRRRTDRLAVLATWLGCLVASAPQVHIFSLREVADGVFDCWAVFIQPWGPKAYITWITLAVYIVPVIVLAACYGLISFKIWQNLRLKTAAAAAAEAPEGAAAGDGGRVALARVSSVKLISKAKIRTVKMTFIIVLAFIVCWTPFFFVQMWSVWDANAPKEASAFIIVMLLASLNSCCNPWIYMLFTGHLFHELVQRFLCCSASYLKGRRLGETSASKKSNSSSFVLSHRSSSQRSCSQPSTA
# [28] = target: Putative P2Y purinoceptor 10 (Homo sapiens) (UniProt O00398); test: RLU of P2RY10 at 1.0 µM in the […] PRESTO-Tango GPCRome screen; settings: Compound concentration 1.0 uM
# [29] = target: P2Y purinoceptor 11 (Homo sapiens) (UniProt Q96G91); test: RLU of P2RY11 at 1.0 µM in the […] PRESTO-Tango GPCRome screen; settings: Compound concentration 1.0 uM
# [30] = target: P2Y purinoceptor 2 (Homo sapiens) (UniProt P41231); test: RLU of P2RY2 at 1.0 µM in the […] PRESTO-Tango GPCRome screen; settings: Compound concentration 1.0 uM
# Chain of P2Y purinoceptor 2 (Homo sapiens) (P41231 whole entry): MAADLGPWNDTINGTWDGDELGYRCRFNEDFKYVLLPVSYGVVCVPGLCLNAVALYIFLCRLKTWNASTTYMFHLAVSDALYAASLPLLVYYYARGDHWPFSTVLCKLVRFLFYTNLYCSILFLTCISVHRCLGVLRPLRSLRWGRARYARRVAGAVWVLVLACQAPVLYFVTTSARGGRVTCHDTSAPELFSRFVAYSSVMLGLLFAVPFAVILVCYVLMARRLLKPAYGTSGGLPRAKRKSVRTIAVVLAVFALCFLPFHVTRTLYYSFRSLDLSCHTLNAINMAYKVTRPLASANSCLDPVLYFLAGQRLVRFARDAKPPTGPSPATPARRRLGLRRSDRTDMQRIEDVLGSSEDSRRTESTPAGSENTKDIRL
# [31] = target: Prostacyclin receptor (Homo sapiens) (UniProt P43119); test: RLU of PTGIR at 1.0 µM in the […] PRESTO-Tango GPCRome screen; settings: Compound concentration 1.0 uM
# Chain of Prostacyclin receptor (Homo sapiens) (P43119 whole entry): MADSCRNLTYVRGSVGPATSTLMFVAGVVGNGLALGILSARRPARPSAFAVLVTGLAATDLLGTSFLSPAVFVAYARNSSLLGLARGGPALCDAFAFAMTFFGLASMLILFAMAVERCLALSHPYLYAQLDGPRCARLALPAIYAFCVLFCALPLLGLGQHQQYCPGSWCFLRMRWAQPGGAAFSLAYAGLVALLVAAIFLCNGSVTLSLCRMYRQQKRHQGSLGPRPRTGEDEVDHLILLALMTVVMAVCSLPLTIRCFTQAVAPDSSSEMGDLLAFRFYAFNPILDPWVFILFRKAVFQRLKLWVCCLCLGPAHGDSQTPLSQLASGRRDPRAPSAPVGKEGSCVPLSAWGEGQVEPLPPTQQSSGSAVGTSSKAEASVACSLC
# [32] = target: Sphingosine 1-phosphate receptor 1 (Homo sapiens) (UniProt P21453); test: RLU of S1PR1 at 1.0 µM in the […] PRESTO-Tango GPCRome screen; settings: Compound concentration 1.0 uM
# [33] = target: Somatostatin receptor type 1 (Homo sapiens) (UniProt P30872); test: RLU of SSTR1 at 1.0 µM in the […] PRESTO-Tango GPCRome screen; settings: Compound concentration 1.0 uM
# [34] = target: Orexin receptor type 1 (Homo sapiens) (UniProt O43613); test: RLU of HCTR1 at 1.0 µM in the Aequorin PRESTO-Tango GPCRome screen; settings: Compound concentration 1.0 uM
# [35] = RLU of HCTR2 at 1.0 µM in the Aequorin PRESTO-Tango GPCRome screen; settings: Homo sapiens; Compound concentration 1.0 uM
smiles,measurement,setting,value
CCCCC(=O)N1CC2(C1)CN(c1ccccc1-c1nnn[nH]1)C2,RLU,[1],17900
same,RLU,[2],-2040
same,RLU,[3],2720
same,RLU,[4],-88.5
same,RLU,[5],1350
same,RLU,[6],1330
same,RLU,[7],-1500
same,RLU,[8],-60.1
same,RLU,[9],-2170
same,RLU,[10],432
same,RLU,[11],2100
same,RLU,[12],-3250
same,RLU,[13],-102
same,RLU,[14],8750
same,RLU,[15],-1460
same,RLU,[16],583
same,RLU,[17],13500
same,RLU,[18],-2330
same,RLU,[19],5340
same,RLU,[20],471
same,RLU,[21],-1360
same,RLU,[22],-570
same,RLU,[23],319
same,RLU,[24],466
same,RLU,[25],-158
same,RLU,[26],634
same,RLU,[27],-479
same,RLU,[28],-82.4
same,RLU,[29],-216
same,RLU,[30],2250
same,RLU,[31],-408
same,RLU,[32],11000
same,RLU,[33],-1070
same,RLU,[34],-2840
same,RLU,[35],2840
